Like-named read-outs stand apart in the source and are kept apart here.
Assays:
[1] = In vitro stability in liver microsomes, human; assay type: in vitro ADME; details: 0.5 mg/mL
Method: Metabolic stabilities of the assay compound in liver microsomes of CD-1 mice, SD rats, beagle dogs, cynomolgus monkeys, and human were assayed, respectively.
Two 96-well incubation plates were prepared and named T60 incubation plate and NCF60 incubation plate, respectively. 445 μL of microsomal working solutions (liver microsomal protein concentration of 0.56 mg/mL) were added to the T60 incubation plate and the NCF60 incubation plate, respectively, and then the above incubation plates were pre-incubated in a 37° C. water bath for about 10 minutes.
After the pre-incubation, 5 μL of working solutions of the assay sample or the control compound were added to the T60 incubation plate and the NCF60 incubation plate, respectively, and the mixture was mixed well. 50 μL of potassium phosphate buffer was added to each well of the NCF60 incubation plate to initiate the reaction. 180 μL of stop solution (200 ng/mL tolbutamide and 200 ng/mL labetalol in acetonitrile) and 6 uL of NADPH regeneration system working solution were added to the T0 stop plate, and 54 μL of sample was transferred from T60 incubation plate to T0 stop plate (generation of T0 sample). The reaction was initiated by adding 44 μL of NADPH regeneration system working solution to each well of the T60 incubation plate. Only 54 μL of microsome working solution, 6 uL of NADPH regeneration system working solution and 180 μL of stop solution were added to the Blank plate. Therefore, in samples of the assay compound or the control compound, the final reaction concentration of compound, testosterone, diclofenac and propafenone was 1 μM, the concentration of liver microsomes was 0.5 mg/mL, and the final reaction concentrations of DMSO and acetonitrile in the reaction system were 0.01% (v/v) and 0.99% (v/v), respectively. […] All samples were injected and analyzed by liquid chromatography-tandem mass spectrometry.

[2] = Protein binding rate in plasma by equilibrium dialysis, human; assay type: in vitro ADME; details: 2 μM, equilibrium dialysis 4 hours
Method: Protein binding rate of the assay compound in plasma of CD-1 mice, SD rats, beagle dogs, cynomolgus monkeys and human was determined by equilibrium dialysis. Plasma samples with a compound concentration of 2 μM were prepared using plasma of the above five species, placed in a 96-well equilibrium dialysis device, and dialyzed with phosphate buffer solution at 37±1° C. for 4 hours. Warfarin was used as the control compound in this assay. The concentrations of the assay compound in plasma and dialysis buffer were determined by LC-MS/MS method.

[3] = Pharmacokinetics by oral administration and intravenous injection in CD mice; assay type: in vivo; details: for Area under the plasma concentration-time curve, AUCu: AUC0-last × PPB(Unbound %); for Vd: CD, iv, 2 mg/kg; for AUC(0-t): read-out: Area under the plasma concentration-time curve, AUC0-last
Method: The mixture was vortexed and sonicated to prepare a 1 mg/mL clear solution, which was filtered through a microporous membrane for later use. Male CD mice aged 7 to 10 weeks were selected, and administered candidate compound solutions intravenously or orally. Whole blood was collected for a certain period of time, and prepared to obtain plasma. Drug concentration was analyzed by LC-MS/MS method, and pharmacokinetic parameters were calculated by Phoenix WinNonlin software (Pharsight, USA).

[4] = tested on: human pancreatic cancer Mia PaCa-2 cells; assay: Pharmacodynamics in vivo, subcutaneously transplanted Mia PaCa-2 tumor model; parameters: species or system Balb/c Nude mice; details: day 22 of administration
Method: Assay on pharmacodynamics in vivo in a subcutaneously transplanted tumor model of human pancreatic cancer Mia PaCa-2 cells in Balb/c Nude mice
Cell culture: Human pancreatic cancer Mia PaCa-2 cells (ATCC-CRL-1420) were cultured in monolayer in vitro in DMEM medium with 10% fetal calf serum and 2.5% horse serum in a 37° C., 5% carbon dioxide incubator. Cells were passaged by routine digestion with trypsin-EDTA twice a week. When the cell saturation reached 80%-90% and the cell number met the requirement, the cells were harvested, counted, and resuspended in an appropriate amount of PBS. Matrigel was added in a ratio of 1:1 to obtain a cell suspension with a cell density of 25×10^6 cells/mL.
Cell inoculation: 0.2 mL (5×10^6 cells/mouse) of Mia PaCa-2 cells (plus Matrigel, 1:1 by volume) were subcutaneously inoculated into the right back of each mouse. When the average tumor volume reached 190 mm^3, mice were randomized into groups based on tumor volume and administration was initiated according to the protocol in Table 15.
Tumor diameter was measured with vernier caliper twice a week. The calculation formula of tumor volume was: V=0.5a×b^2, where a and b represent the long and short diameters of the tumor, respectively.
The anti-tumor efficacy of compound was evaluated by TGI (%) or relative tumor proliferation rate T/C (%). Relative tumor proliferation rate T/C (%)=TRTV/CRTV×100% (TRTV: RTV in a treatment group; CRTV: RTV in a negative control group). The relative tumor volume (RTV) was calculated according to results of tumor measurement, and the calculation formula was RTV=Vt/V0, where V0 was average tumor volume measured at the time of administration by group (i.e., D0), and Vt was average tumor volume at the time of a certain measurement. For TRTV and CRTV, data on the same day were used.
TGI (%) reflected tumor growth inhibition rate. TGI(%)=[(1−(average tumor volume at the end of administration of a treatment group−average tumor volume at the beginning of administration of the treatment group))/(average tumor volume at the end of treatment of a vehicle control group−average tumor volume at the beginning of treatment of the vehicle control group)]×100%.

C=C(F)C(=O)N1CCN(c2nc(OC[C@@]34CCCN3C[C@H](F)C4)nc3c2CO[C@H](c2c(F)c(N)cc(C)c2C(F)(F)F)C3)C[C@@H]1CC#N [Compound of formula (I)] gave a CLint scaled at 1 μM [1] of 61.1 mL/min/kg, a half-life at 1 μM [1] of 0.34 h and a microsomal CLint at 1 μM ([1]; read-out: CLint(hep)) of 67.9 µL/min/mg. For the same compound, the “Protein unbound rate (%)” value [2] was 4.8%, the “Area under the plasma concentration-time curve, AUCu” value ([3]; intravenous injection, 2.0 mg/kg) was 0.1556 µM·h and the Vd ([3]; male, mouse, plasma, intravenous injection, 2.0 mg/kg, Vdss/PPB(Unbound %), read-out: Apparent volume of distribution, Vdss, u) was 32.3 L/kg. It also gave a Vd ([3]; male, mouse, plasma, intravenous injection, 2.0 mg/kg, read-out: Apparent volume of distribution, Vdss) of 3.9 L/kg, an AUC(0-t) ([3]; male, mouse, plasma, intravenous injection, 2.0 mg/kg) of 1.3 µM·h and a clearance ([3]; male, mouse, plasma, intravenous injection, 2.0 mg/kg, read-out: Clearance rate, CL) of 40.6 mL/min/kg. The half-life ([3]; male, mouse, plasma, intravenous injection, 2.0 mg/kg, read-out: Half-life time, T1/2 (converted)) was 1.7 h, the AUC(0-t) ([3]; male, mouse, plasma, oral administration, 10.3 mg/kg) was 1.42 µM·h and the bioavailability ([3]; male, mouse, plasma, oral administration, 10.3 mg/kg, read-out: Bioavailability F (%)) was 21.9%. For the same compound, the Cmax ([3]; male, mouse, plasma, oral administration, 10.3 mg/kg, read-out: Peak concentration, Cmax) was 431 nM, the Tmax ([3]; male, mouse, plasma, oral administration, 10.3 mg/kg, read-out: Time-to-peak, Tmax) was 1 h and the “Area under the plasma concentration-time curve, AUCu” value ([3]; oral administration, 10.3 mg/kg) was 0.1706 µM·h. For the same compound, the “Peak concentration, Cmax, u” value ([3]; oral administration, 10.3 mg/kg, Cmax × PPB(Unbound %)) was 51.7 nM, the Average tumor volume ([4]; 10 mg/kg PO QD) was 249.87 mm^3 and the T/C ([4]; 10 mg/kg PO QD) was 12.39%. It also gave a TGI ([4]; 10 mg/kg PO QD) of 93.06%, an Average tumor volume ([4]; 30 mg/kg PO QD) of 124.14 mm^3 and a T/C ([4]; 30 mg/kg PO QD) of 6.16%. It also gave a TGI ([4]; 30 mg/kg PO QD) of 99.64%.

Source: patent publication US20250129102A1, “CRYSTAL FORM OF PYRIMIDINE HETEROCYCLIC COMPOUND AND PREPARATION METHOD THEREFOR” (D3 Bio (Wuxi) Co., Ltd., priority 2021, published 2025)
